How the values were obtained:
[1] = tested on: ischemic kidney of beagle; assay: Effect on ischemic kidney of beagle (BUN and creatinine value, recovery of renal function); format: in vivo, male beagles
Procedure: The animals used in this experiment were 6 male beagles, and were grouped into a group of 3 beagles to which the injection of PEP·Na prepared in Example should be administered and a group of 3 beagles to which a physiological saline should be administered, to carry out experiments as follows in the same manner as in Test Example 1.
To each of the beagles, a 5% aqueous solution of pentobarbital sodium was intravenously injected in an amount of 0.5 ml/kg (b.w.) to apply general anesthesia, and a median incision of its venter was carried out to extirpate the right kidney. Subsequently, the left kidney was exposed to infiltrate xylocaine into the surrounding portion of the renal pelvis, and the blood flow of the left renal artery was blocked for 90 minutes while handling the kidney with tender care. Thereafter, blocking was released for reperfusion. To the beagles belonging to the PEP·Na administered group, PEP·Na was intravenously administered in the form of an injection prepared in Example, with a dose of 100 mg/kg (b.w.) every time immediately after release of blocking, and, also, thereafter, PEP·Na was similarly administered with a dose of 100 mg/kg (b.w.) once a day every day. On the other hand, to the beagles belonging to the control group, physiological saline was intravenously administered in an amount of 10 ml/kg (b.w.) every time immediately after release of blocking, and, also thereafter, physiological saline was similarly administered in an amount of 10 ml/kg (b.w.) once a day.
Next, BUN and creatinine value were assayed with time to make an index showing the recovery rate of renal function. Results obtained are shown in Table 3 and Table 4 and also in FIG. 3 and FIG. 4.

[2] = tested on: ischemic kidney of rabbit; assay: Effect on ischemic kidney of rabbit (BUN and creatinine value in blood, recovery of renal function); format: in vivo, male Japanese white-strain rabbits
From the text: The animals used in this experiment were 10 male Japanese white-strain rabbits, and were grouped into a group of 5 rabbits to which the injection of monosodium phosphoenolpyruvate (hereinafter simply called "PEP·Na") prepared in Example 4 should be administered and a group of 5 rabbits to which a physiological saline should be administered,to carry out experiments as follows:
To each of the rabbits used in this experiment, a 1% aqueous solution of pentobarbital sodium was intravenously injected in an amount of 3 ml/kg (b.w.) to apply general anesthesia, and a median incision of its venter was carried out to extirpate the right kidney. Subsequently, the left kidney was exposed to infiltrate xylocaine into the surrounding portion of the renal pelvis, and the left renal artery was blocked while handling the kidney with tender care. More specifically, the blood flow of the renal artery was blocked for 60 minutes, and then released for 10 minutes, followed by blocking for more 60 minutes, to perform ischemia for 120 minutes in total. Thereafter, blocking was released for reperfusion. During these procedures, to the rabbits belonging to the PEP·Na group, PEP·Na was intravenously administered in the form of an injection prepared in Example, with a dose of 10 mg/kg (b.w.) every time immediately before release of the first and the second blocking, and, also after release of the blocking, PEP·Na was similarly administered with a dose of 10 mg/kg (b.w.) once a day. On the other hand, to the rabbits belonging to the control group, a physiological saline was intravenously administered in an amount of 1 ml/kg (b.w.) every time immediately before release of the first and the second blocking, and, also after release of the blocking, the physiological saline was similarly administered in an amount of 1 ml/kg (b.w.) once a day, every day.
Next, blood urea nitrogen (hereinafter "BUN") and creatinine value which are standards to know the morbidity of a kidney were assayed with time to make an index showing the recovery rate of renal function. Results obtained are shown in Table 1 and Table 2 and also in FIG. 1 and FIG. 2.

[3] = tested on: beagle; assay: Acute toxicity (LD50) to beagle; format: in vivo; conditions: conclusion from LD50 in beagle
Procedure: (§1) Acute toxicity (LD50) in the case where monosodium phosphoenolpyruvate monohydrate was administered to a beagle was examined.

[4] = Acute toxicity (LD50) to beagle; format: in vivo; conditions: dog, in vivo, beagle
Procedure: as §1

[5] = after 1 day, 100 mg/kg i.v. immediately after release of blocking, then once a day
[6] = after 2 days, 100 mg/kg i.v. immediately after release of blocking, then once a day
[7] = after 3 days, 100 mg/kg i.v. immediately after release of blocking, then once a day
[8] = after 4 days, 100 mg/kg i.v. immediately after release of blocking, then once a day
[9] = immediately before blocking (baseline)
[10] = after 1 day, 10 mg/kg i.v. before each release of blocking, then once a day
[11] = after 2 days, 10 mg/kg i.v. before each release of blocking, then once a day
[12] = after 3 days, 10 mg/kg i.v. before each release of blocking, then once a day
[13] = after 4 days, 10 mg/kg i.v. before each release of blocking, then once a day
[14] = after 5 days, 10 mg/kg i.v. before each release of blocking, then once a day
[15] = rabbits, 1 day (24 hours) after release of blocking
[16] = rabbits, after day 1, over a period of 4 days, vs control group

## C=C(OP(=O)(O)O)C(=O)O [PEP.Na, monosodium phosphoenolpyruvate monohydrate]
[1]; [5]
  BUN of beagles in PEP.Na-administered group: 46 ± 8.3 mg/dL
  Creatinine value of beagles in PEP.Na-administered group: 3.0 ± 0.45 mg/dL
[1]; [6]
  BUN of beagles in PEP.Na-administered group: 63 ± 10.1 mg/dL
  Creatinine value of beagles in PEP.Na-administered group: 2.9 ± 0.41 mg/dL
[1]; [7]
  BUN of beagles in PEP.Na-administered group: 52 ± 9.6 mg/dL
  Creatinine value of beagles in PEP.Na-administered group: 2.5 ± 0.33 mg/dL
[1]; [8]
  BUN of beagles in PEP.Na-administered group: 44 ± 9.2 mg/dL
  Creatinine value of beagles in PEP.Na-administered group: 2.0 ± 0.31 mg/dL
[1]; beagle
  recovery of renal function: apparently effective for the recovery of renal function
[1]; beagles, 1 day (24 hours) after release of blocking
  BUN compared with control group: significantly lower value of BUN
[1]; beagles, 1 day after release of blocking
  creatinine value compared with control group: significantly lower value of creatinine value
[1]; beagles, after day 1, over a period of 3 days
  time course of creatinine value: gradually decreases thereafter over a period of 3 days
[1]; beagles, after release of blocking
  time course of BUN: reaches to a maximum after 2 days, but thereafter gradually decreases
[1]; [9]
  BUN of beagles in PEP.Na-administered group: 15 ± 0.5 mg/dL
  Creatinine value of beagles in PEP.Na-administered group: 0.8 ± 0.23 mg/dL
[2]; [10]
  BUN of rabbits in PEP.Na-administered group: 54.2 ± 2.2 mg/dL
  Creatinine value of rabbits in PEP.Na-administered group: 2.83 ± 0.74 mg/dL
[2]; [11]
  BUN of rabbits in PEP.Na-administered group: 58.0 ± 15.2 mg/dL
  Creatinine value of rabbits in PEP.Na-administered group: 2.61 ± 0.87 mg/dL
[2]; [12]
  BUN of rabbits in PEP.Na-administered group: 44.1 ± 10.5 mg/dL
  Creatinine value of rabbits in PEP.Na-administered group: 2.06 ± 0.72 mg/dL
[2]; [13]
  BUN of rabbits in PEP.Na-administered group: 35.5 ± 11.0 mg/dL
  Creatinine value of rabbits in PEP.Na-administered group: 1.73 ± 0.40 mg/dL
[2]; [14]
  BUN of rabbits in PEP.Na-administered group: 15.0 ± 5.8 mg/dL
  Creatinine value of rabbits in PEP.Na-administered group: 1.19 ± 0.17 mg/dL
[2]; [9]
  Creatinine value of rabbits in PEP.Na-administered group: 1.18 ± 0.06 mg/dL
[2]; immediately before blocking (baseline), mean ± spread
  BUN of rabbits in PEP.Na-administered group: 14.5 ± 1.3 mg/dL
[2]; rabbit
  recovery of renal function: apparently effective for the recovery of renal function
[2]; [15]
  BUN compared with control group: significantly lower value of BUN
  creatinine compared with control group: significantly lower value of creatinine
[2]; [16]
  time course of BUN: gradually decreases thereafter over a period of 4 days and gets back to the value given before blocking earlier than in control group
  time course of creatinine: gradually decreases thereafter over a period of 4 days and gets back to the value before blocking earlier than in control group
[3]
  safety to a living body: very safe substance
[4]; intravenous
  LD50: ≥ 1000 mg/kg
[4]; oral
  LD50: ≥ 3000 mg/kg

Reference: US4874882A, “Process for preparing monosodium phosphoenolpyruvate” (Ube Industries, Ltd., priority 1986, dated 1989)
